# Results taken from PubChem BioAssay AID330 (DTP/NCI, 2004).
# Where “and” joins values, the source holds several entries; their conditions need not be identical. Identical values can stand only once. Toxic doses and inconclusive results are not listed.
# Tested on: P388 leukemia ip, CD2F1 mice, survival T/C
# Assay: NCI In Vivo Anticancer Drug Screen. Data for tumor model P388 Leukemia (intraperitoneal) in CD2F1 (CDF1) mice
# Conditions: endpoint: median survival time, higher = longer survival
# Outline: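 Mice carrying the transplanted tumor received test compound or vehicle. Survival was recorded in each group, and the value is the treated-group measurement divided by that of the vehicle-treated control group.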
# [1] = dose: 50.0 mg/kg/injection, schedule: Q01DX009 (ip), vehicle: saline
# [2] = dose: 100.0 mg/kg/injection, schedule: Q01DX009 (ip), vehicle: saline
# [3] = dose: 100.0 mg/kg/injection, schedule: Q01DX009 (ip), vehicle: saline with Tween-80
# [4] = dose: 200.0 mg/kg/injection, schedule: Q01DX009 (ip), vehicle: saline with Tween-80
# [5] = dose: 50.0 mg/kg/injection, schedule: Q04DX003 (ip), vehicle: saline with Tween-80
# [6] = dose: 100.0 mg/kg/injection, schedule: Q04DX003 (ip), vehicle: saline with Tween-80
# [7] = dose: 100.0 mg/kg/injection, schedule: Q04DX003 (ip), vehicle: saline
# [8] = dose: 100.0 mg/kg/injection, schedule: Q01DX005 (ip), vehicle: Klucel (hydroxypropylcellulose) (HPC)
compound,measurement,setting,value
CN(C)CCC(=O)c1ccc(Cl)cc1Cl,T/C,[1],110 % of control
same,T/C,[2],100 % of control
O=C(Oc1c(F)c(F)c(F)c(F)c1F)N(CCCl)CCCl,T/C,"dose: 100.0 mg/kg/injection, schedule: Q01DX001 (ip), vehicle: Klucel (hydroxypropylcellulose) (HPC)",101 % of control
same,T/C,"dose: 200.0 mg/kg/injection, schedule: Q01DX001 (ip), vehicle: Klucel (hydroxypropylcellulose) (HPC)",104 % of control
same,T/C,"dose: 400.0 mg/kg/injection, schedule: Q01DX001 (ip), vehicle: Klucel (hydroxypropylcellulose) (HPC)",94 % of control
NC(=S)N/N=C/c1nccc2ccccc12,T/C,"dose: 9.4 mg/kg/injection, schedule: Q01DX009 (ip), vehicle: saline with Tween-80",153 % of control
same,T/C,"dose: 37.5 mg/kg/injection, schedule: Q01DX009 (ip), vehicle: saline",150 % of control
same,T/C,"dose: 75.0 mg/kg/injection, schedule: Q01DX009 (ip), vehicle: saline",150 % of control
same,T/C,[3],152 % of control
same,T/C,[4],98 % of control
CN(C)[C@@H]1C(=O)C(C(=O)NCN(CCCl)CCCl)=C(O)[C@@]2(O)C(=O)C3=C(O)c4c(O)cccc4[C@@](C)(O)[C@H]3C[C@@H]12,T/C,"dose: 33.0 mg/kg/injection, schedule: Q04DX003 (ip), vehicle: saline with Tween-80",159 % of control
same,T/C,"dose: 44.0 mg/kg/injection, schedule: Q04DX003 (ip), vehicle: saline",154 % of control
same,T/C,[5],158 % of control and 172 % of control
same,T/C,"dose: 66.0 mg/kg/injection, schedule: Q04DX003 (ip), vehicle: saline",181 % of control
same,T/C,"dose: 75.0 mg/kg/injection, schedule: Q04DX003 (ip), vehicle: saline with Tween-80",168 % of control
same,T/C,[6],100 % of control
same,T/C,[7],209 % of control
C[N+]1=CN(S(=O)(=O)C2C=CC=CC=C2)CC1(C)C,T/C,[7],100 % of control
same,T/C,"dose: 200.0 mg/kg/injection, schedule: Q04DX003 (ip), vehicle: saline",107 % of control
same,T/C,"dose: 400.0 mg/kg/injection, schedule: Q04DX003 (ip), vehicle: saline",97 % of control
COc1ccc(-c2sc(/N=C/c3cc(OC)c(OC)c(OC)c3)c(C#N)c2C)cc1OC,T/C,[5],101 % of control
same,T/C,[6],99 % of control
same,T/C,"dose: 200.0 mg/kg/injection, schedule: Q04DX003 (ip), vehicle: saline with Tween-80",100 % of control
same,T/C,"dose: 400.0 mg/kg/injection, schedule: Q04DX003 (ip), vehicle: saline with Tween-80",90 % of control
Nc1cc2nc3ccccc3c(=O)n2[nH]1,T/C,"dose: 50.0 mg/kg/injection, schedule: Q01DX005 (ip), vehicle: Klucel (hydroxypropylcellulose) (HPC)",98 % of control
same,T/C,[8],91 % of control
same,T/C,"dose: 200.0 mg/kg/injection, schedule: Q01DX005 (ip), vehicle: Klucel (hydroxypropylcellulose) (HPC)",86 % of control
O=c1ncc2ccc([N+](=O)[O-])cc2[nH]1,T/C,"dose: 12.5 mg/kg/injection, schedule: Q01DX005 (ip), vehicle: Klucel (hydroxypropylcellulose) (HPC)",108 % of control and 95 % of control and 98 % of control
same,T/C,"dose: 25.0 mg/kg/injection, schedule: Q01DX005 (ip), vehicle: Klucel (hydroxypropylcellulose) (HPC)",102 % of control and 94 % of control and 98 % of control
same,T/C,[8],112 % of control
COc1ccc(C(=O)C(C)(c2nc3n(c2O)C(=N)N=N3)c2nc3n(c2O)C(=N)N=N3)cc1 (stereo not given),T/C,"dose: 60.0 mg/kg/injection, schedule: Q01DX005 (ip), vehicle: saline",100 % of control
same,T/C,"dose: 120.0 mg/kg/injection, schedule: Q01DX005 (ip), vehicle: saline",102 % of control
same,T/C,"dose: 240.0 mg/kg/injection, schedule: Q01DX005 (ip), vehicle: saline",106 % of control
c1ccc([Si]2(c3ccccc3)O[Si](c3ccccc3)(c3ccccc3)O[Si](c3ccccc3)(c3ccccc3)O[Si](c3ccccc3)(c3ccccc3)O2)cc1,T/C,"dose: 25.0 mg/kg/injection, schedule: Q01DX009 (ip), vehicle: saline with Tween-80",95 % of control and 97 % of control
same,T/C,"dose: 50.0 mg/kg/injection, schedule: Q01DX009 (ip), vehicle: saline with Tween-80",100 % of control and 92 % of control and 93 % of control
same,T/C,[3],120 % of control and 94 % of control and 95 % of control
same,T/C,[4],90 % of control (2×) and 93 % of control
Cc1cccc(C(C)(C)C)c1NC(=O)CCc1nnc(N)n1N,T/C,"dose: 50.0 mg/kg/injection, schedule: Q01DX005 (ip), vehicle: saline with Tween-80",111 % of control
same,T/C,"dose: 100.0 mg/kg/injection, schedule: Q01DX005 (ip), vehicle: saline with Tween-80",100 % of control
same,T/C,"dose: 200.0 mg/kg/injection, schedule: Q01DX005 (ip), vehicle: saline with Tween-80",101 % of control
Cc1cc2nc3ccc(O)cc3[n+](C)c2cc1N,T/C,"dose: 12.5 mg/kg/injection, schedule: Q01DX009 (ip), vehicle: saline",98 % of control and 103 % of control
same,T/C,"dose: 25.0 mg/kg/injection, schedule: Q01DX009 (ip), vehicle: saline",100 % of control and 106 % of control
same,T/C,[1],96 % of control and 97 % of control
same,T/C,[2],99 % of control and 96 % of control
CC(O)c1cccc(C(C)(C)O)c1Sc1c(C(C)(C)O)cccc1C(C)(C)O (stereo not given),T/C,"dose: 100.0 mg/kg/injection, schedule: Q04DX003 (ip), vehicle: Klucel (hydroxypropylcellulose) (HPC)",99 % of control
same,T/C,"dose: 200.0 mg/kg/injection, schedule: Q04DX003 (ip), vehicle: Klucel (hydroxypropylcellulose) (HPC)",98 % of control
same,T/C,"dose: 400.0 mg/kg/injection, schedule: Q04DX003 (ip), vehicle: Klucel (hydroxypropylcellulose) (HPC)",97 % of control
COC(=O)c1nn(Cc2ccccc2)cc1C=O,T/C,"dose: 60.0 mg/kg/injection, schedule: Q01DX005 (ip), vehicle: saline with Tween-80",99 % of control
same,T/C,"dose: 120.0 mg/kg/injection, schedule: Q01DX005 (ip), vehicle: saline with Tween-80",92 % of control
same,T/C,"dose: 240.0 mg/kg/injection, schedule: Q01DX005 (ip), vehicle: saline with Tween-80",92 % of control
